Measured values as given in PMC10388363, “Novel 1,4-Dihydropyridines as Specific Binders and Activators of SIRT3 Impair Cell Viability and Clonogenicity and Downregulate Hypoxia-Induced Targets in Cancer Cells” (Journal of Medicinal Chemistry, 2023).
pKd: −log10 of the molar value.

Assays:
[1] = molecular target: T1, human SIRT1 (Homo sapiens, UniProt Q96EB6); set-up: method as in PMID 36228194; details: 100 μM; cited from earlier work
T1 construct: using constructs in pET15b (Sirt1); His tag (N, cleaved yes); made in house; host or cells: Escherichia coli
T1 sequence (Q96EB6 1-747): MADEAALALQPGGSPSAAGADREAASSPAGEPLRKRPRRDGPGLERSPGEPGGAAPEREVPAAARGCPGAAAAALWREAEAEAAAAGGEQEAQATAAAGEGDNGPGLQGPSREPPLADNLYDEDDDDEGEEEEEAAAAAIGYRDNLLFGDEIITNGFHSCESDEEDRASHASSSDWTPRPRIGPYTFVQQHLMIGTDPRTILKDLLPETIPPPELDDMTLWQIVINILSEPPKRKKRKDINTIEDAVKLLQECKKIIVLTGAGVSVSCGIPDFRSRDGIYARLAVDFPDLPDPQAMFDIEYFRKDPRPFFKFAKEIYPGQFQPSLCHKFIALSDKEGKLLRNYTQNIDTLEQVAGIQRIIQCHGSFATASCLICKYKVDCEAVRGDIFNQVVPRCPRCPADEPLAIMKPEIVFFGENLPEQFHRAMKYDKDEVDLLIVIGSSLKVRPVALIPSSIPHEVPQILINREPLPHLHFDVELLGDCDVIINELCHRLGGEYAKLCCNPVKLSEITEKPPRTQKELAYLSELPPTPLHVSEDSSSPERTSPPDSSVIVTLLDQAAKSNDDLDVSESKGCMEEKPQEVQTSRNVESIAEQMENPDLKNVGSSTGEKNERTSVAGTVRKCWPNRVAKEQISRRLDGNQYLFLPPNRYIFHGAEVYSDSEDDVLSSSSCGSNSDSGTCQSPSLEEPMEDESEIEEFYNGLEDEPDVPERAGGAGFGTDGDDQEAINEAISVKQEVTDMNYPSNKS

[2] = molecular target: T2, human SIRT3 (Homo sapiens, UniProt Q9NTG7); set-up: method as in PMID 36228194; details: 100 μM; cited from earlier work
T2 construct: pET151D/Topo (Sirt3-114-380 and Sirt5-34-302); His tag (N, cleaved yes); made in house; host or cells: Escherichia coli
T2 sequence (Q9NTG7 114-380): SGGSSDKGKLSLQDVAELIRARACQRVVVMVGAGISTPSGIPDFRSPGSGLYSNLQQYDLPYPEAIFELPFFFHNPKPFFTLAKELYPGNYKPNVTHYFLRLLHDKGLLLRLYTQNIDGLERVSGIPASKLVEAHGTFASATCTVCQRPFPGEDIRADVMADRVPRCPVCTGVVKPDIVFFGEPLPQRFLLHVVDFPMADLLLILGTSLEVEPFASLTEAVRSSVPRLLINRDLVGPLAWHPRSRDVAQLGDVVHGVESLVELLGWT

[3] = molecular target: T2, human SIRT3; assay: Surface plasmon resonance binding assay, immobilized SIRT3; details: SPR, Scatchard analysis, analytes 5-80 μM
Description: Next, surface plasmon resonance (SPR) experiments were conducted with selected SIRT3 activators 2e and 3a–d to ascertain their biophysical interaction with the human SIRT3 protein. Their parental compounds 2 and 3, together with honokiol, were used as positive controls. The experiments were carried out twice at different concentrations (5, 10, 20, 40, and 80 μM), by injecting the compounds at increasing doses (Figure 5). The resonance units (RU) increase with respect to baseline indicates the formation of the SIRT3/ligand complex, the plateau region represents the steady-state phase of the interaction (RUeq, RU at equilibrium) and the decrease in RU after 180 s represents dissociation of analytes from the immobilized SIRT3 protein after injection of the buffer.
SPR experiments were carried out using a SensiQ Pioneer system (SensiQ, Oklahoma City, OK, USA), essentially as in Genovese et al. 2020[84] and in Battista et al. 2021,[85] with some modifications, as follows.
The sensor chip (COOH5) was chemically activated by a 35 μL injection of a 1:1 mixture of […] (200 mM) and N-hydroxysuccinimide (50 mM) at a flow rate of 5 μL/min. Sirtuin3 (ligand) was immobilized on activated sensor chips via amine coupling. Immobilization was carried out in 20 mM sodium acetate at pH 4.0; unreacted groups were blocked by injecting 1 M ethanolamine hydrochloride (35 μL). Sirtuin3 immobilization level obtained was 1500–4000 RU.
The analytes, dissolved in 100% DMSO at 10 mM concentration, were diluted in buffer 20 mM Hepes, 150 mM NaCl, 0.005% surfactant P20 buffer (HBSP) to a concentration of 200 μM (2% final DMSO concentration), further diluted in HBSP + 2% DMSO (HBSP2%D) and injected on the sensor chip at a constant flow rate (nominal flow rate = 30 μL/min) at the following concentrations: 5, 10, 20, 40, and 80 μM.
The RU increase relative to baseline indicates complex formation (taking place at known analytes concentrations at each moment in the gradient); the plateau region represents the steady-state phase of the interaction (RUeq); and the decrease in RU after 180 s represents dissociation of analytes from the immobilized Sirtiun3 after injection of HBSP2%D. Regeneration procedures are based on two long (2000 and 500 s) injections of buffer, separated by a brief (5 s) injection of 10 mM NaOH.
Control experiments were performed in sensor chips treated as described above in the absence of an immobilized ligand. Kinetic evaluation of the sensorgrams was obtained using the SensiQ Qdat program and full fitting with 1, 2, and 3 sites; Scatchard analysis was used to determine apparent KD values.

In the case of `CCOC(=O)C1=CN(C(=O)c2ccccc2)C=C(C(=O)OCC)C1c1ccccc1` [Compound 2], the SIRT1 activation [1] is listed as “below 200%”, the SIRT3 activation [2] is listed as “over 300%” and the pKd [3] is listed as 4.33 to 4.40.
